Values of other authors as cited in patent US20030109512A1, “Use of 4-androstenediol and 4-androstenediol in a transdermal formulation to increase testosterone levels in humans” (priority 2001, published 2003).

Test system: estrogen levels
Settings: some studies indicate

In the case of `C[C@]12CCC(=O)C=C1CC[C@@H]1[C@@H]2CC[C@]2(C)C(=O)CC[C@@H]12` [androstenedione], the “effect on estrogen levels” value is given as “causes elevation of estrogen levels”.
